Experimental data taken from paper PMC5451006, “Inhibition of insect olfactory behavior by an airborne antagonist of the insect odorant receptor co-receptor subunit” (PLoS ONE, 2017).

Legend:
Format in all cases: cell-based
[1] = target: T1, Dmel\Orco+Dmel\Or35a (Drosophila melanogaster, UniProt Q9VNB5); experiment: two-electrode voltage clamp, Xenopus oocytes, concentration-inhibition
T1 construct: heteromeric OR, cRNAs co-expressed in Xenopus laevis oocytes; stoichiometry unknown; with Odorant receptor 35a
T1 sequence (Q9VNB5 1-486): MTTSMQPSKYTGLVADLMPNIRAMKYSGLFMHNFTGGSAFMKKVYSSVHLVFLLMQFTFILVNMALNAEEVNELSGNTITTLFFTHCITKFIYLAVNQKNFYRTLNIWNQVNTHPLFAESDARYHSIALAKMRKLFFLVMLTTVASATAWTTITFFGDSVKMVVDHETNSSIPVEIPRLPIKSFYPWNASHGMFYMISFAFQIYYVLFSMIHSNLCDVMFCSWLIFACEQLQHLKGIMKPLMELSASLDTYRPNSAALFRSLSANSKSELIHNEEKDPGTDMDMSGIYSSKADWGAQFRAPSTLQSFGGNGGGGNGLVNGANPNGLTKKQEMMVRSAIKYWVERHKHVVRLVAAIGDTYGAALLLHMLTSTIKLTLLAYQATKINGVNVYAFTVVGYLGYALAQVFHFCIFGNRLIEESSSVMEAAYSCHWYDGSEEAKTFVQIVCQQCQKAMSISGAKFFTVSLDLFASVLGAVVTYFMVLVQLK
T1 sequence (Q9V3Q2 1-409 partner): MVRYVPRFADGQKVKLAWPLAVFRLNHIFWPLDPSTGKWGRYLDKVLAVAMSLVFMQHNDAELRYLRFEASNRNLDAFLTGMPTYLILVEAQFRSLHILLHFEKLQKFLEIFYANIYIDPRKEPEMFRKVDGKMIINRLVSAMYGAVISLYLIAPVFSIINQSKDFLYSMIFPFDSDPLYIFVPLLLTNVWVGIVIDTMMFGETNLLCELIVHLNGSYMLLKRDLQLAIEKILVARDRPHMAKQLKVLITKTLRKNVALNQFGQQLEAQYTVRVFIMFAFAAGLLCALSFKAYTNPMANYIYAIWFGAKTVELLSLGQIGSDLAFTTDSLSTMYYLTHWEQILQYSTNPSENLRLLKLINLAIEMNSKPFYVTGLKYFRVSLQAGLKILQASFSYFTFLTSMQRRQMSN

[2] = target: T2, Cqui\Orco+Cqui\Or21 (Culex quinquefasciatus, UniProt Z9TAD8G4U6); experiment: as above; details: antagonist vs 3 μM OLC12 (Orco agonist), -70 mV, pH 7.4, 90 sec pre-application
T2 construct: heteromeric OR, cRNAs from pGEMHE co-expressed in Xenopus laevis oocytes; stoichiometry unknown; with Odorant receptor 21
T2 sequence (Z9TAD8G4U6 1-480): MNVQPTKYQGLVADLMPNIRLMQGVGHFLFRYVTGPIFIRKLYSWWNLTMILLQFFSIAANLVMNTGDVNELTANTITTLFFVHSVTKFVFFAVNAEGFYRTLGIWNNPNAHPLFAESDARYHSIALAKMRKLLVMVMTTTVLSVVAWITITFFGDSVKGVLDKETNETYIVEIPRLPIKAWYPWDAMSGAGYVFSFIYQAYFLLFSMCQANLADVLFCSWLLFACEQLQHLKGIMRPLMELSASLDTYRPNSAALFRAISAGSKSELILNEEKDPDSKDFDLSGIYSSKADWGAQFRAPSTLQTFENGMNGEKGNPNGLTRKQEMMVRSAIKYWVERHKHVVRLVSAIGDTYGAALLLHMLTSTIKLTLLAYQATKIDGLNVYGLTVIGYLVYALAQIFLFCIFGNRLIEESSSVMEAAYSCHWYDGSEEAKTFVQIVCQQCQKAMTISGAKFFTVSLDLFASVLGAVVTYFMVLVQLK

[3] = target: T3, Agam\Orco+Agam\Or27 (Anopheles gambiae, UniProt Q7QCC7); experiment: two-electrode voltage clamp, Xenopus oocytes, single concentration; details: antagonist vs 3 μM L-fenchone (EC50 concentration); allosteric via Orco; pH 7.4, -70 mV
T3 construct: heteromeric OR co-expressed in Xenopus laevis oocytes; stoichiometry unknown; with Odorant receptor 27
T3 sequence (Q7QCC7 1-478): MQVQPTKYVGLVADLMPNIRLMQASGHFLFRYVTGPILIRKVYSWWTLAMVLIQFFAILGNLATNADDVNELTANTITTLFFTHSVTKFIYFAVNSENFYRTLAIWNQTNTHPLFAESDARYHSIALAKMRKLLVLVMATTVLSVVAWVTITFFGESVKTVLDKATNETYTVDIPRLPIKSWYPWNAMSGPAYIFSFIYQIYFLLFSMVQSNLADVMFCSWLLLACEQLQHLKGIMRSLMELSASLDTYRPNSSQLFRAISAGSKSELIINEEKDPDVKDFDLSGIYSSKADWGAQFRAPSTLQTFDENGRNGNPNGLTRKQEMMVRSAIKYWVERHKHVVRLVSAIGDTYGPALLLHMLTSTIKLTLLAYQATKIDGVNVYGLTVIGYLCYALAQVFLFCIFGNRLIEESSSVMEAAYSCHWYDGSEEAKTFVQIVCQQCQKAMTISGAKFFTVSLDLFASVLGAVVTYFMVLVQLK

[4] = target: T4, Agam\Orco+Agam\Or31 (Anopheles gambiae, UniProt Q7QCC7); experiment: as above; details: antagonist vs 70 μM geranyl acetate (EC50 concentration); allosteric via Orco; pH 7.4, -70 mV
T4 construct: heteromeric OR co-expressed in Xenopus laevis oocytes; stoichiometry unknown; with Odorant receptor 31
T4 sequence (Q7QCC7 1-478): T3 sequence (Q7QCC7 1-478)

[5] = target: T5, Agam\Orco+Agam\Or28 (Anopheles gambiae, UniProt Q7QCC7); experiment: as above; details: antagonist vs 40 μM acetophenone (EC50 concentration); allosteric via Orco; pH 7.4, -70 mV
T5 construct: heteromeric OR co-expressed in Xenopus laevis oocytes; stoichiometry unknown; with Odorant receptor 28
T5 sequence (Q7QCC7 1-478): T3 sequence (Q7QCC7 1-478)

[6] = target: T6, Cqui\Orco (Culex quinquefasciatus, UniProt Z9TAD8G4U6); experiment: as above; details: antagonist vs 30 μM OLC12; homomeric Orco; pH 7.4, -70 mV
T6 construct: homomeric Orco channel, expressed alone in Xenopus laevis oocytes
T6 sequence (Z9TAD8G4U6 1-480): T2 sequence (Z9TAD8G4U6 1-480)
Source text: two-electrode voltage clamp, Xenopus oocytes, single concentration on Cqui\Orco | OX1w inhibition of homomeric Orco channels. Oocytes expressing Dmel\Orco, Cqui\Orco or Agam\Orco

[7] = target: T7, Agam\Orco (Anopheles gambiae, UniProt Q7QCC7); experiment: as above; details: antagonist vs 30 μM OLC12; homomeric Orco; pH 7.4, -70 mV
T7 construct: homomeric Orco channel, expressed alone in Xenopus laevis oocytes
T7 sequence (Q7QCC7 1-478): T3 sequence (Q7QCC7 1-478)
Source text: two-electrode voltage clamp, Xenopus oocytes, single concentration on Agam\Orco | OX1w inhibition of homomeric Orco channels. Oocytes expressing Dmel\Orco, Cqui\Orco or Agam\Orco

[8] = target: T8, Dmel\Orco (Drosophila melanogaster, UniProt Q9VNB5); experiment: as above; details: antagonist vs 30 μM OLC12; homomeric Orco; pH 7.4, -70 mV
T8 construct: homomeric Orco channel, expressed alone in Xenopus laevis oocytes
T8 sequence (Q9VNB5 1-486): T1 sequence (Q9VNB5 1-486)
Source text: two-electrode voltage clamp, Xenopus oocytes, single concentration on Dmel\Orco | OX1w inhibition of homomeric Orco channels. Oocytes expressing Dmel\Orco, Cqui\Orco or Agam\Orco

[9] = target: T9, Agam\Orco+Agam\Or65 (Anopheles gambiae, UniProt Q7QCC7); experiment: as above; details: antagonist vs 100 nM eugenol (EC50 concentration); allosteric via Orco; pH 7.4, -70 mV
T9 construct: heteromeric OR co-expressed in Xenopus laevis oocytes; stoichiometry unknown; with Odorant receptor 65
T9 sequence (Q7QCC7 1-478): T3 sequence (Q7QCC7 1-478)

[10] = target: T10, Agam\Orco+Agam\Or39 (Anopheles gambiae, UniProt Q7QCC7); experiment: as above; details: antagonist vs 10 μM 6-methyl-5-hepten-2-one (EC50 concentration); allosteric via Orco; pH 7.4, -70 mV
T10 construct: heteromeric OR co-expressed in Xenopus laevis oocytes; stoichiometry unknown; with Odorant receptor 39
T10 sequence (Q7QCC7 1-478): T3 sequence (Q7QCC7 1-478)

[11] = target: T11, Agam\Orco+Agam\Or15 (Anopheles gambiae, UniProt Q7QCC7); experiment: as above; details: antagonist vs 18 μM acetophenone (EC50 concentration); allosteric via Orco; pH 7.4, -70 mV
T11 construct: heteromeric OR co-expressed in Xenopus laevis oocytes; stoichiometry unknown; with Odorant receptor 15
T11 sequence (Q7QCC7 1-478): T3 sequence (Q7QCC7 1-478)

IC50 [1] [µM]	IC50 [2] [µM]	% response remaining at 100 μM (normalized to sham) [5] [%]	% response remaining at 100 μM (normalized to sham) [9] [%]	Compound	% response remaining at 100 μM (normalized to sham) [3]	% response remaining at 100 μM (normalized to sham) [4]	% response remaining at 100 μM [6]	% response remaining at 100 μM [7]	% response remaining at 100 μM [8]	% response remaining at 100 μM (normalized to sham) [10]	% response remaining at 100 μM (normalized to sham) [11]
32 ± 4	20 ± 3			O=C(Nc1cc(F)cc(F)c1)c1cccs1 [OX1v, N-(3,5-difluorophenyl)-2-thiophenecarboxamide]							
57 ± 5	4 ± 1	8 ± 1	78 ± 5	O=C(Nc1ccc(F)cc1)c1sccc1Cl [OX1w, 3-chloro-N-(4-fluorophenyl)-2-thiophenecarboxamide]	OX1w was able to inhibit odorant activation of each of the tested ORs	OX1w was able to inhibit odorant activation of each of the tested ORs	OX1w inhibition of homomeric Orco channels. Oocytes expressing Dmel\Orco, Cqui\Orco or Agam\Orco	OX1w inhibition of homomeric Orco channels. Oocytes expressing Dmel\Orco, Cqui\Orco or Agam\Orco	OX1w inhibition of homomeric Orco channels. Oocytes expressing Dmel\Orco, Cqui\Orco or Agam\Orco	OX1w was able to inhibit odorant activation of each of the tested ORs	OX1w was able to inhibit odorant activation of each of the tested ORs
32 ± 6	15 ± 1			O=C(Nc1ccc(SC(F)F)cc1)c1cccs1 [OX1x, N-(4-((difluoromethyl)thio)phenyl)-2-thiophenecarboxamide]							
